The data set is described as follows: method code SF-HPLC, from DOI: 10.1248/cpb.43.2238.

As to `CCNC(=O)c1cccs1`, the logP (usually a log measure of how a compound divides between an organic and an aqueous phase) was determined as 1.18.

Turning to `CCCOC(=O)c1ccsc1`, the logP turned out to be 3.03.

For the compound `CNC(=O)c1ccsc1`, the log partition coefficient (logP) turned out to be 0.81.

As to `CCNC(=O)c1ccsc1`, the lipophilicity (logP) is 1.18.

Compound `CCCNC(=O)c1ccsc1` had a log partition coefficient (logP) of 1.65.

The compound `COC(=O)c1cccs1` yielded a logP of 1.83.

Compound `CNC(=O)c1cccs1` displayed a logP of 0.84.

`CCCNC(=O)c1cccs1` had a logP of 1.68.

Turning to `c1ccsc1`, the lipophilicity (logP) turned out to be 1.89.

`CCOC(=O)c1ccsc1` gave a logP of 2.32.

Regarding `CCCOC(=O)c1cccs1`, the log partition coefficient (logP) worked out at 3.01.

Consider `COc1cccs1`, for which the logP came out at 2.13.

The compound `Clc1ccsc1` came in with a lipophilicity (logP) of 2.55.

Turning to `CC(=O)c1ccsc1`, the logP was 1.26.

The compound `N#Cc1cccs1` had a logP of 1.34.

For `CC(=O)c1cccs1`, the log partition coefficient (logP) was found to be 1.27.

The compound `O=[N+]([O-])c1cccs1` displayed a logP of 1.58.
